Our source for the IC50 values is patent publication US10766893B2 (priority 2017, dated 2020).

Common to all, as to assay: biochemical
Common to all, as to type: biochemical
Holding throughout (details): 15 nM tritium labelled cAMP, 1 hr at room temperature

The target of one test is PDE1B (Homo sapiens (Human), UniProt Q01064). An excerpt: (§1) Table 1 lists the IC50 value for inhibition of PDE1 by the compounds of the invention. […] PDE1 assays are described in the Experimental Section.
A further test has as its target PDE1C (Homo sapiens (Human), UniProt Q14123).
Source text: as §1

The target in the next test is PDE1A (Homo sapiens (Human), UniProt P54750).
Source text: as §1

Chain of PDE1B (Q01064 whole entry): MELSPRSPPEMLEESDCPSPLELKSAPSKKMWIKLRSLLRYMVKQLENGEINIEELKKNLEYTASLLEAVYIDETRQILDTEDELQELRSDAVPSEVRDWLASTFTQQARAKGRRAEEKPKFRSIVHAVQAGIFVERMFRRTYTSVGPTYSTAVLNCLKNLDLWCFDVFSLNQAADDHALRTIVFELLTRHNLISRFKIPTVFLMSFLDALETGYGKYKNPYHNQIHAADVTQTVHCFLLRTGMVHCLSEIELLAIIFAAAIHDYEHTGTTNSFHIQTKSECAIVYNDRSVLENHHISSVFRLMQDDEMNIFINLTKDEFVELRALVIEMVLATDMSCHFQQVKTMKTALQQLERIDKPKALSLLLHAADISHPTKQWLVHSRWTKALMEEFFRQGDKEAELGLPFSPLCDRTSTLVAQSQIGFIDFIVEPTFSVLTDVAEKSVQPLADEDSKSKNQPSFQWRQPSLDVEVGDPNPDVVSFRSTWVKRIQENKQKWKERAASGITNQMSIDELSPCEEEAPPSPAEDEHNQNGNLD
Chain of PDE1C (Q14123 whole entry): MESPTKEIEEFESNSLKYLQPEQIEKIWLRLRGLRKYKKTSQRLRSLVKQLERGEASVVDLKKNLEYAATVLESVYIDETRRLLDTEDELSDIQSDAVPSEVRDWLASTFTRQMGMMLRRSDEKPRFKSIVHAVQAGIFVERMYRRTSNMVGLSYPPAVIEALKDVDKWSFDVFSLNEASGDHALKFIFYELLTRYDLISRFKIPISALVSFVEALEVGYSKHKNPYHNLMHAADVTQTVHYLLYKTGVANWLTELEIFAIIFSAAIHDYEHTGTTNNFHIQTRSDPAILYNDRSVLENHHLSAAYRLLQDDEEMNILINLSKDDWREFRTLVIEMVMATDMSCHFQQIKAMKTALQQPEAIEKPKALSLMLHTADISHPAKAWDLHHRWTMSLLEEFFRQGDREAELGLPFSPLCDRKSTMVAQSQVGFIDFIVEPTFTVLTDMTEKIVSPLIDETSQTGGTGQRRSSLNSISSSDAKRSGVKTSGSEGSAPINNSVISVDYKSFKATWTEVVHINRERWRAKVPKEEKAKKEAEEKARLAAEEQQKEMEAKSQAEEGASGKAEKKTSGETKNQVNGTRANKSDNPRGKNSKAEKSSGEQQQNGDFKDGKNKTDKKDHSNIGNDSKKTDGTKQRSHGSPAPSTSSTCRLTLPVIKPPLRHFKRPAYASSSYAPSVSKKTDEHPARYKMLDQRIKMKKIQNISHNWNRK
Chain of PDE1A (P54750 whole entry): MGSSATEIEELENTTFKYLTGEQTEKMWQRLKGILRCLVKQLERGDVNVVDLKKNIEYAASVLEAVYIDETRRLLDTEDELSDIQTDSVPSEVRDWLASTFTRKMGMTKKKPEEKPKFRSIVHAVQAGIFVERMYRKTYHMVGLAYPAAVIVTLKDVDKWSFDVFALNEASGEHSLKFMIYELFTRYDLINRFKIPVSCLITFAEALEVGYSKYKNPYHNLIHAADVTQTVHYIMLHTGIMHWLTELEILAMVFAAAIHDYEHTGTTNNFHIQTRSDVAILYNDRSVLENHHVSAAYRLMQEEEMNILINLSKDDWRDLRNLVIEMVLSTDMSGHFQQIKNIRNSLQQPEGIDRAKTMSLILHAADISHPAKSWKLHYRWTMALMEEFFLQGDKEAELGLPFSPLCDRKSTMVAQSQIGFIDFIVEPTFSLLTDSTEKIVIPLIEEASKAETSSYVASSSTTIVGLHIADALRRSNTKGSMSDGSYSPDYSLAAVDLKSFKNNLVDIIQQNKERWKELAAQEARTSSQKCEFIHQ

Take `CCOc1nnccc1-c1cc(NCc2cnn(C)c2)c2c(n1)c(C)nn2C(C)CC` (single isomer, unassigned) [Example 5b, 5-(3-ethoxypyridazin-4-yl)-3-methyl-N-[(1-methylpyrazol-4-yl)methyl]-1-[1-methylpropyl]pyrazolo[4,3-b]pyridin-7-amine]: the figures for the 50% inhibitory concentration (IC50) against PDE1B, against PDE1C and against PDE1A were 6.1 nM, 102 nM and 25 nM, respectively.

As to `CCOc1nnccc1-c1cc(NCc2cnn(C)c2)c2c(n1)c(C)nn2C(C)CC` (single isomer, unassigned) [Example 6b, 5-(3-ethoxypyridazin-4-yl)-3-methyl-N-[(1-methylpyrazol-4-yl)methyl]-1-[1-methylpropyl]pyrazolo[4,3-b]pyridin-7-amine], the IC50 against PDE1B turned out to be 0.36 nM; at PDE1C, 11 nM; on PDE1A, 1.9 nM.

As to `CCOc1cnccc1-c1cc(NCc2cnn(C)c2)c2c(n1)c(C)nn2C(C)CC` (single isomer, unassigned) [Example 32b, 5-(3-ethoxy-4-pyridyl)-3-methyl-N-[(1-methylpyrazol-4-yl)methyl]-1-[1-methylpropyl]pyrazolo[4,3-b]pyridin-7-amine], the IC50 against PDE1B was found to be 7.8 nM; against PDE1C it was 180 nM; on PDE1A, 57 nM.

For `CCOc1nnccc1-c1cc(NCc2ncccn2)c2c(n1)c(C)nn2C(C)C` [Example 1b, 5-(3-ethoxypyridazin-4-yl)-1-isopropyl-3-methyl-N-(pyrimidin-2-ylmethyl)pyrazolo[4,3-b]pyridin-7-amine], the results for the IC50 at PDE1B, at PDE1C and against PDE1A were 1.3 nM, 48 nM and 11 nM, respectively.

Take `CCOc1ncccc1-c1cc(NCc2cccc3nsnc23)c2c(n1)c(C)nn2C(C)C` [Example 2a, N-(2,1,3-benzothiadiazol-4-ylmethyl)-5-(2-ethoxy-3-pyridyl)-1-isopropyl-3-methyl-pyrazolo[4,3-b]pyridin-7-amine]: the 50% inhibitory concentration (IC50) came out at 3.4 nM on PDE1B, 140 nM on PDE1C and 53 nM on PDE1A.

As to `COc1nnccc1-c1cc(NCc2cnn(C)c2)c2c(n1)c(C)nn2C(C)C` [Example 2b, 1-isopropyl-5-(3-methoxypyridazin-4-yl)-3-methyl-N-[(1-methylpyrazol-4-yl)methyl]pyrazolo[4,3-b]pyridin-7-amine], the results for the 50% inhibitory concentration (IC50) at PDE1B, at PDE1C and against PDE1A were 8.1 nM, 49 nM and 45 nM, respectively.

Take `CCOc1ncccc1-c1cc(NCc2cccn3cnnc23)c2c(n1)c(C)nn2C(C)C` [Example 3a, 5-(2-ethoxy-3-pyridyl)-1-isopropyl-3-methyl-N-([1,2,4]triazolo[4,3-c]pyridin-8-ylmethyl)pyrazolo[4,3-b]pyridin-7-amine]: the half-inhibitory concentration (IC50) on PDE1B was found to be 0.32 nM; against PDE1A, 4.7 nM.

For `CCOc1nnccc1-c1cc(NCc2cnn(C)c2)c2c(n1)c(C)nn2C(C)C` [Example 3b, 5-(3-ethoxypyridazin-4-yl)-1-isopropyl-3-methyl-N-[(1-methylpyrazol-4-yl)methyl]pyrazolo[4,3-b]pyridin-7-amine], the results for the IC50 on PDE1B, at PDE1C and against PDE1A were 1.1 nM, 27 nM and 6.1 nM, respectively.

As to `CCOc1ncccc1-c1cc(NCc2cccn3ccnc23)c2c(n1)c(C)nn2C(C)C` [Example 4a, 5-(2-ethoxy-3-pyridyl)-N-(imidazo[1,2-a]pyridin-8-ylmethyl)-1-isopropyl-3-methyl-pyrazolo[4,3-b]pyridin-7-amine], the 50% inhibitory concentration (IC50) came to 0.48 nM at PDE1B, 22 nM against PDE1C and 6.6 nM at PDE1A.

Consider `CCCOc1nnccc1-c1cc(NCc2cnn(C)c2)c2c(n1)c(C)nn2C(C)C` [Example 4b, 1-isopropyl-3-methyl-N-[(1-methylpyrazol-4-yl)methyl]-5-(3-propoxypyridazin-4-yl)pyrazolo[4,3-b]pyridin-7-amine], for which the figures for the IC50 at PDE1B, against PDE1C and at PDE1A were 0.35 nM, 18 nM and 3.2 nM, respectively.

On to `CCOc1ncccc1-c1cc(NCc2cccn3nccc23)c2c(n1)c(C)nn2C(C)C` [Example 5a, 5-(2-ethoxy-3-pyridyl)-1-isopropyl-3-methyl-N-(pyrazolo[1,5-a]pyridin-4-ylmethyl)pyrazolo[4,3-b]pyridin-7-amine], for which the results for the IC50 at PDE1B, at PDE1C and against PDE1A were 7.1 nM, 95 nM and 53 nM, respectively.

In the case of `CCOc1ncccc1-c1cc(NCc2cccc3ncnn23)c2c(n1)c(C)nn2C(C)C` [Example 6a, 5-(2-ethoxy-3-pyridyl)-1-isopropyl-3-methyl-N-([1,2,4]triazolo[1,5-a]pyridin-5-ylmethyl)pyrazolo[4,3-b]pyridin-7-amine], the IC50 against PDE1B worked out at 1.4 nM; on PDE1C, 64 nM; against PDE1A, 18 nM.

As to `CCOc1ncccc1-c1cc(NCc2cccc3nc(C)nn23)c2c(n1)c(C)nn2C(C)C` [Example 7a, 5-(2-ethoxy-3-pyridyl)-1-isopropyl-3-methyl-N-[(2-methyl-[1,2,4]triazolo[1,5-a]pyridin-5-yl)methyl]pyrazolo[4,3-b]pyridin-7-amine], the IC50 was determined as 0.93 nM at PDE1B, 35 nM on PDE1C and 11 nM against PDE1A.

Regarding `CCOc1nnccc1-c1cc(NCc2cccnc2OC)c2c(n1)c(C)nn2C(C)C` [Example 7b, 5-(3-ethoxypyridazin-4-yl)-1-isopropyl-N-[(2-methoxy-3-pyridyl)methyl]-3-methyl-pyrazolo[4,3-b]pyridin-7-amine], the IC50 on PDE1B was 1.7 nM; against PDE1A it was 11 nM.

For `CCOc1ncccc1-c1cc(NCc2cccn3cncc23)c2c(n1)c(C)nn2C(C)C` [Example 8a, 5-(2-ethoxy-3-pyridyl)-N-(imidazo[1,5-a]pyridin-8-ylmethyl)-1-isopropyl-3-methyl-pyrazolo[4,3-b]pyridin-7-amine], the IC50 was 0.18 nM against PDE1B, 9.1 nM on PDE1C and 3.2 nM against PDE1A.

For `CCOc1nnccc1-c1cc(NCc2nnc(C)o2)c2c(n1)c(C)nn2C(C)C` [Example 8b, 5-(3-ethoxypyridazin-4-yl)-1-isopropyl-3-methyl-N-[(5-methyl-1,3,4-oxadiazol-2-yl)methyl]pyrazolo[4,3-b]pyridin-7-amine], the IC50 at PDE1B came out at 14 nM; against PDE1C, 320 nM; at PDE1A, 97 nM.

On to `CCOc1ncccc1-c1cc(NCc2cccc3ncoc23)c2c(n1)c(C)nn2C(C)C` [Example 9a, N-(1,3-benzoxazol-7-ylmethyl)-5-(2-ethoxy-3-pyridyl)-1-isopropyl-3-methyl-pyrazolo[4,3-b]pyridin-7-amine], for which the IC50 was 5.3 nM at PDE1B, 82 nM at PDE1C and 45 nM against PDE1A.

Take `CCOc1nnccc1-c1cc(NCc2ccn(C)n2)c2c(n1)c(C)nn2C(C)C` [Example 9b, 5-(3-ethoxypyridazin-4-yl)-1-isopropyl-3-methyl-N-[(1-methylpyrazol-3-yl)methyl]pyrazolo[4,3-b]pyridin-7-amine]: the half-inhibitory concentration (IC50) against PDE1B was determined as 0.6 nM; on PDE1C, 22 nM; on PDE1A it was 5.2 nM.

As to `CCOc1nnccc1-c1cc(NCc2ncc(F)cn2)c2c(n1)c(C)nn2C(C)C` [Example 10b, 5-(3-ethoxypyridazin-4-yl)-N-[(5-fluoropyrimidin-2-yl)methyl]-1-isopropyl-3-methyl-pyrazolo[4,3-b]pyridin-7-amine], the results for the IC50 on PDE1B, on PDE1C and on PDE1A were 2.4 nM, 67 nM and 21 nM, respectively.

Take `CCOc1nnccc1-c1cc(NCc2cccc3oc(C)nc23)c2c(n1)c(C)nn2C(C)C` [Example 14a, 5-(3-ethoxypyridazin-4-yl)-1-isopropyl-3-methyl-N-[(2-methyl-1,3-benzoxazol-4-yl)methyl]pyrazolo[4,3-b]pyridin-7-amine]: the IC50 on PDE1B was 0.21 nM; against PDE1A, 9.3 nM.

Regarding `CCOc1nnccc1-c1cc(NCc2ccccn2)c2c(n1)c(C)nn2C(C)C` [Example 14b, 5-(3-ethoxypyridazin-4-yl)-1-isopropyl-3-methyl-N-(2-pyridylmethyl)pyrazolo[4,3-b]pyridin-7-amine], the figures for the IC50 against PDE1B and on PDE1C were 1.1 nM and 53 nM, respectively.

Regarding `CCOc1nnccc1-c1cc(NCc2cc(C)[nH]n2)c2c(n1)c(C)nn2C(C)C` [Example 22b, 5-(3-ethoxypyridazin-4-yl)-1-isopropyl-3-methyl-N-[(5-methyl-1H-pyrazol-3-yl)methyl]pyrazolo[4,3-b]pyridin-7-amine], the IC50 on PDE1B was found to be 0.4 nM; against PDE1C, 15 nM.

Consider `CCOc1nnccc1-c1cc(NCc2cccc(OC)n2)c2c(n1)c(C)nn2C(C)C` [Example 24b, 5-(3-ethoxypyridazin-4-yl)-1-isopropyl-N-[(6-methoxy-2-pyridyl)methyl]-3-methyl-pyrazolo[4,3-b]pyridin-7-amine], for which the IC50 at PDE1B was 1.4 nM; on PDE1C it was 71 nM.

Regarding `CCOc1nnccc1-c1cc(NCc2cccc(F)n2)c2c(n1)c(C)nn2C(C)C` [Example 26b, 5-(3-ethoxypyridazin-4-yl)-N-[(6-fluoro-2-pyridyl)methyl]-1-isopropyl-3-methyl-pyrazolo[4,3-b]pyridin-7-amine], the concentration for half-maximal inhibition (IC50) stood at 44 nM against PDE1C and 6.5 nM against PDE1A.

As for `CCOc1cnccc1-c1cc(NCc2cnn(C)c2)c2c(n1)c(C)nn2C(C)C` [Example 28b, 5-(3-ethoxy-4-pyridyl)-1-isopropyl-3-methyl-N-[(1-methylpyrazol-4-yl)methyl]pyrazolo[4,3-b]pyridin-7-amine], the IC50 is 2.1 nM against PDE1B and 33 nM at PDE1C.

Regarding `Cc1nc2c(-c3cc(NCc4cnn(C)c4)c4c(n3)c(C)nn4C(C)C)cccc2o1` [Example 35b, 1-isopropyl-3-methyl-5-(2-methyl-1,3-benzoxazol-4-yl)-N-[(1-methylpyrazol-4-yl)methyl]pyrazolo[4,3-b]pyridin-7-amine], the results for the IC50 at PDE1C and against PDE1A were 43 nM and 39 nM, respectively.

Usually IC50 stands for the concentration that gives 50% inhibition.
